# Laboratory results as given in patent publication US10202391B2, “Chemical compounds” (AstraZeneca AB, priority 2015, dated 2019).
# Experiments:
# ERK2 = target: T1, ERK2 (Homo sapiens, UniProt P28482); assay: ERK2 Rapidfire Mass Spectrometry Inhibition of Catalysis Assay; type: biochemical; conditions: 1.2 nM ERK2, 16 μM Erktide, 120 μM ATP (measured Km), 15 minute pre-incubation; read-out: ERK2 Mass Spectrometry Enzyme IC50
# T1 construct: made in house
# Description: (§1) All compounds or DMSO (dimethyl sulphoxide) for the ERK2 Mass Spectrometry and A375 phospho-p90RSK assays were dispensed from source plates containing compounds at 10 mM in 100% (v/v) DMSO or 100% DMSO, directly into assay plates using an Echo 555 Acoustic dispenser (Labcyte Inc™). Depending on the assay, two separate plate preparations were followed. In Workflow A, 10 mM compound stocks were diluted 1:100 using a fixed-tip 96-head Agilent VPrep liquid handler (Agilent Technologies, Santa Clara, Calif.) to give four intermediate dilutions (10 mM, 100 μM, 1 μM, 10 nM). In Workflow B, 10 mM compound stocks were diluted 1:10 using a Tecan Freedom Evo (Tecan Group Ltd., Switzerland), and then 1:100 using the Echo 555 and Labcyte LX to produce three intermediate dilutions across three Labcyte qualified source plates (1 mM, 10 μM, 100 nM). These intermediate dilution plates were then used by the Echo 555 to generate final assay-ready compound plates with a 12 point dose range (10, 3, 1, 0.25, 0.1, 0.03, 0.01, 0.0025, 0.001, 0.0003, 0.0001, 0.0000125 μM) in order to calculate compound IC50s, with a total DMSO concentration in the assay of 1%. For the ERK2 Mass Spectrometry assay Workflow B was used. For the A375 phospho-p90RSK cell assay, the intermediate 1:100 dilution plate described in Workflow A was used by the Echo to dispense compounds and DMSO directly into the cell plates with a 12 point dose range (30, 10, 3.125, 1.25, 0.3, 0.1, 0.03125, 0.0125, 0.003, 0.001, 0.0003125, 0.00003 μM) in order to calculate compound IC50's, with a total DMSO concentration in the assay of 0.3%.
# ERK2 Rapidfire Mass Spectrometry Inhibition of Catalysis Assay
# MEK U911-activated ERK2 protein was expressed and purified in-house. Enzyme and substrate solutions were made up in assay buffer consisting of 50 mM Tris (pH 7.5), 10 mM MgCl2, 0.1 mM EGTA (ethylene glycol tetraacetic acid), 10 mM DTT (dithiothreitol) and 0.01% (v/v) CHAPS (3-[(3-Cholamidopropyl)dimethylammonio]-1-propanesulfonate). 1.2 nM ERK2 protein was prepared in assay buffer and 10 μl was dispensed into each well of a polypropylene, 384-well plate (#781201, Greiner) containing test and reference control compounds. […] The reaction was allowed to progress for 20 minutes at room temperature before being quenched by the addition of 80 al 1% (v/v) formic acid. The assay plates were then run on the RapidFire Mass Spectrometry platform (Agilent) to measure substrate (unphosphorylated Erktide) and product (phosphorylated Erktide) levels. Data was analysed and IC50's (half maximal inhibitory concentration) were calculated using Genedata Screener® software.
# [1] = test system: phospho-p90RSK in A375 cell line; assay: A375 Phospho-p90RSK Cellular Assay; type: cell-based, human; conditions: Homo sapiens, A375 cells, 2 hours incubation
# Description: as §1
# A375 Phospho-p90RSK Cellular Assay
# A375 cells were cultured in cell media composed of DMEM (Dulbecco's modified Eagle's medium), 10% (v/v) Foetal Calf Serum and 1% (v/v) L-Glutamine. After harvesting, cells were dispensed into black, 384-well Costar plates (#3712, Corning) to give 2400 cells per well in a total volume of 40 μl cell media, and were incubated overnight at 37° C., 90% relative humidity and 5% CO2 in a rotating incubator. Test compounds and reference controls were dosed directly into the cell plates using a Labcyte Echo 555 acoustic dispenser. The cell plates were then incubated for 2 hours at 37° C. before being fixed by the addition of 20 μl 12% formaldehyde in PBS/A (4% final concentration), followed by a 20 minute room temperature incubation, and then a 2× wash with 150 μl PBS/A (phosphate buffered saline containing albumin) using a BioTek ELx405 platewasher. Cells were permeabilised with 20 μl 0.1% Triton X-100 in PBS/A for 20 minutes at room temperature, and then washed 1× with 100 μl PBS/A. Primary phospho-p90RSK (Thr359) (D1E9) rabbit monoclonal antibody (#8753, Cell Signaling Technology) was diluted 1:1000 in assay buffer (0.05% (v/v) Tween, 5% (v/v) Foetal Calf Serum, in PBS/A), 20 μl added per well, and plates were incubated at 4° C. overnight. Cell plates were washed 2× with 200 μl PBS/T (phosphate buffered saline containing Tween-20), then 20 μl 1:500 dilution in assay buffer of Alexa Fluor® 647 goat anti-rabbit IgG secondary antibody (#A31573, Molecular Probes, Life Technologies), with a 1:5000 dilution of Hoechst 33342, was added per well. Following a 90 minute incubation at room temperature, plates were washed 2× with 200 μl PBS/T, and 40 μl PBS/A was added per well. Stained cell plates were covered with black lid seals, and then read on a Cellomics ArrayScan™ VTI imaging platform (Thermo Scientific), using an XF53 filter with 10× objective, with a LED light source set-up to analyse nuclear staining with Hoechst 33342 (405 nm) and secondary antibody staining of phospho-p90RSK (647 nm). Data was analysed and IC50's were calculated using Genedata Screener® software.
# T1 sequence (P28482 whole entry): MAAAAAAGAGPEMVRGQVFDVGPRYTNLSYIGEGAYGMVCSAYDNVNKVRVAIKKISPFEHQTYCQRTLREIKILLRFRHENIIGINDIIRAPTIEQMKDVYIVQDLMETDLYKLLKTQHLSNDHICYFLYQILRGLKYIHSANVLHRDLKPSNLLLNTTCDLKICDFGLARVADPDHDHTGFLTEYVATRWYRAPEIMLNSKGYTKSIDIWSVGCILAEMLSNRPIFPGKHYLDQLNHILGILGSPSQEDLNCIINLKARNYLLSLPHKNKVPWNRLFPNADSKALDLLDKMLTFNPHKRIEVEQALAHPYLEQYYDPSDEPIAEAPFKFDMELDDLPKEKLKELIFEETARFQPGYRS
SMILES,IC50 (ERK2),IC50 ([1]; A-375),"IC50 ([1]; A-375, 2 h)"
"C[C@H]1Cn2cc(-c3nc(Nc4ccnn4C)ncc3Cl)nc2C(=O)N1Cc1cccc(C(F)F)n1 [Example 9, (S)-2-(5-Chloro-2-((1-methyl-1H-pyrazol-5-yl)amino)pyrimidin-4-yl)-7-((6-(difluoromethyl)pyridin-2-yl)methyl)-6-methyl-6,7-dihydroimidazo[1,2-a]pyrazin-8(5H)-one]",0.5 nM,190 nM,
"Cc1cnc(Nc2ccnn2C)nc1-c1cn2c(n1)C(=O)N(Cc1cccc(C(F)(F)F)n1)[C@@H](C)C2 [Example 27, (S)-6-Methyl-2-(5-methyl-2-((1-methyl-1H-pyrazol-5-yl)amino)pyrimidin-4-yl)-7-((6-(trifluoromethyl)pyridin-2-yl)methyl)-6,7-dihydroimidazo[1,2-a]pyrazin-8(5H)-one]",0.8 nM,77 nM,
"Cc1cnc(Nc2ccnn2C)nc1-c1cn2c(n1)C(=O)N(Cc1ccnc(C(F)(F)F)n1)[C@@H](C)C2 [Example 26, (S)-6-methyl-2-(5-methyl-2-((1-methyl-1H-pyrazol-5-yl)amino)pyrimidin-4-yl)-7-((2-(trifluoromethyl)pyrimidin-4-yl)methyl)-6,7-dihydroimidazo[1,2-a]pyrazin-8(5H)-one]",1.1 nM,200 nM,
"Cc1cnc(Nc2ccnn2C)nc1-c1cn2c(n1)C(=O)N(Cc1ccc(F)c(F)c1)[C@@H](C)C2 [Example 20, (S)-7-(3,4-Difluorobenzyl)-6-methyl-2-(5-methyl-2-((1-methyl-1H-pyrazol-5-yl)amino)pyrimidin-4-yl)-6,7-dihydroimidazo[1,2-a]pyrazin-8(5H)-one]",0.4 nM,,38 nM
"Cc1cnc(Nc2ccnn2C)nc1-c1cn2c(n1)C(=O)N(Cc1cccc(Cl)c1)CC2 [Example 13, 7-(3-Chlorobenzyl)-2-(5-methyl-2-((1-methyl-1H-pyrazol-5-yl)amino)pyrimidin-4-yl)-6,7-dihydroimidazo[1,2-a]pyrazin-8(5H)-one]",0.3 nM,,12 nM
"C[C@H]1Cn2cc(-c3ccnc(Nc4ccnn4C)n3)nc2C(=O)N1Cc1cccc(Cl)c1 [Example 2, (S)-7-(3-Chlorobenzyl)-6-methyl-2-(2-((1-methyl-1H-pyrazol-5-yl)amino)pyrimidin-4-yl)-6,7-dihydroimidazo[1,2-a]pyrazin-8(5H)-one]",0.7 nM,86 nM,
"Cc1cnc(Nc2ccnn2C)nc1-c1cn2c(n1)C(=O)N(Cc1cc(C(F)(F)F)ccn1)[C@@H](C)C2 [Example 29, (S)-6-Methyl-2-(5-methyl-2-((1-methyl-1H-pyrazol-5-yl)amino)pyrimidin-4-yl)-7-((4-(trifluoromethyl)pyridin-2-yl)methyl)-6,7-dihydroimidazo[1,2-a]pyrazin-8(5H)-one]",0.9 nM,130 nM,
"Cc1cnc(Nc2ccnn2C)nc1-c1cn2c(n1)C(=O)N(Cc1ccc(F)c(Cl)c1)CC2 [Example 12, 7-(3-Chloro-4-fluorobenzyl)-2-(5-methyl-2-((1-methyl-1H-pyrazol-5-yl)amino)pyrimidin-4-yl)-6,7-dihydroimidazo[1,2-a]pyrazin-8(5H)-one]",0.6 nM,3 nM,
"COC[C@H]1Cn2cc(-c3nc(Nc4ccnn4C)ncc3C)nc2C(=O)N1Cc1cccc(Cl)c1 [Example 17, (R)-7-(3-Chlorobenzyl)-6-(methoxymethyl)-2-(5-methyl-2-((1-methyl-1H-pyrazol-5-yl)amino)pyrimidin-4-yl)-6,7-dihydroimidazo[1,2-a]pyrazin-8(5H)-one]",0.9 nM,5.2 nM,
"Cc1cnc(Nc2ccnn2C)nc1-c1cn2c(n1)C(=O)N(Cc1cccc(OC(F)F)c1)[C@@H](C)C2 [Example 28, (S)-7-(3-(Difluoromethoxy)benzyl)-6-methyl-2-(5-methyl-2-((1-methyl-1H-pyrazol-5-yl)amino)pyrimidin-4-yl)-6,7-dihydroimidazo[1,2-a]pyrazin-8(5H)-one]",0.5 nM,110 nM,
"Cc1cccc(CN2CCn3cc(-c4ccnc(Nc5ccnn5C)n4)nc3C2=O)n1 [Example 1, 2-(2-((1-Methyl-1H-pyrazol-5-yl)amino)pyrimidin-4-yl)-7-((6-methylpyridin-2-yl)methyl)-6,7-dihydroimidazo[1,2-a]pyrazin-8(5H)-one]",17.4 nM,17000 nM,
"Cc1cnc(Nc2ccnn2C)nc1-c1cn2c(n1)C(=O)N(Cc1cccc(C(F)F)c1)[C@@H](C)C2 [Example 21, (S)-7-(3-(Difluoromethyl)benzyl)-6-methyl-2-(5-methyl-2-((1-methyl-1H-pyrazol-5-yl)amino)pyrimidin-4-yl)-6,7-dihydroimidazo[1,2-a]pyrazin-8(5H)-one]",0.6 nM,11 nM,
"Cc1cnc(Nc2ccnn2C)nc1-c1cn2c(n1)C(=O)N(Cc1cccc(Cl)c1)[C@@H](C)C2 [Example 19, (S)-7-(3-Chlorobenzyl)-6-methyl-2-(5-methyl-2-((1-methyl-1H-pyrazol-5-yl)amino)pyrimidin-4-yl)-6,7-dihydroimidazo[1,2-a]pyrazin-8(5H)-one]",0.5 nM,5.3 nM,
"COc1cccc(CN2C(=O)c3nc(-c4nc(Nc5ccnn5C)ncc4Cl)cn3C[C@@H]2C)c1 [Example 7, (S)-2-(5-Chloro-2-((1-methyl-1H-pyrazol-5-yl)amino)pyrimidin-4-yl)-7-(3-methoxybenzyl)-6-methyl-6,7-dihydroimidazo[1,2-a]pyrazin-8(5H)-one]",0.5 nM,38 nM,
"Cc1cnc(Nc2ccnn2C)nc1-c1cn2c(n1)C(=O)N(Cc1cccc(C(F)F)n1)[C@H](C)C2 [Example 37, (R)-7-((6-(Difluoromethyl)pyridin-2-yl)methyl)-6-methyl-2-(5-methyl-2-((1-methyl-1H-pyrazol-5-yl)amino)pyrimidin-4-yl)-6,7-dihydroimidazo[1,2-a]pyrazin-8(5H)-one]",0.7 nM,64 nM,
"Cc1cnc(Nc2ccnn2C)nc1-c1cn2c(n1)C(=O)N(Cc1cccc(C(F)F)c1)CC2 [Example 14, 7-(3-(Difluoromethyl)benzyl)-2-(5-methyl-2-((1-methyl-1H-pyrazol-5-yl)amino)pyrimidin-4-yl)-6,7-dihydroimidazo[1,2-a]pyrazin-8(5H)-one]",0.3 nM,24 nM,
"C[C@H]1Cn2cc(-c3ccnc(Nc4ccnn4C)n3)nc2C(=O)N1Cc1ccc(F)c(F)c1 [Example 4, (S)-7-(3,4-Difluorobenzyl)-6-methyl-2-(2-((1-methyl-1H-pyrazol-5-yl)amino)pyrimidin-4-yl)-6,7-dihydroimidazo[1,2-a]pyrazin-8(5H)-one]",1.8 nM,630 nM,
